We go through eleven compounds from patent publication US9839639B2, “Neprilysin inhibitors” (THERAVANCE BIOPHARMA R&D IP, LLC, priority 2014, dated 2017).

One series addresses T1, human NEP (Homo sapiens, UniProt P08473).
T1 construct: purchased R&D Systems, Minneapolis, Minn; 1182-ZN
In words: In vitro enzyme inhibition assay, inhibitor potency at human NEP. Type of series: biochemical. Conditions: recombinant human NEP, fluorogenic peptide substrate 10 μM, 37° C.; values given as ranges. The protocol: The inhibitory activities of compounds at human and rat neprilysin (EC 3.4.24.11; NEP) and human angiotensin converting enzyme (ACE) were determined using in vitro assays as described below.
Recombinant human NEP and recombinant human ACE were obtained commercially (R&D Systems, Minneapolis, Minn., catalog numbers 1182-ZN and 929-ZN, respectively). The fluorogenic peptide substrate Mca-D-Arg-Arg-Leu-Dap-(Dnp)-OH (Medeiros et al. (1997) Braz. J. Med. Biol. Res. 30:1157-62; Anaspec, San Jose, Calif.) and Abz-Phe-Arg-Lys(Dnp)-Pro-OH (Araujo et al. (2000) Biochemistry 39:8519-8525; Bachem, Torrance, Calif.) were used in the NEP and ACE assays respectively.
The assays were performed in 384-well white opaque plates at 37° C. using the fluorogenic peptide substrates at a concentration of 10 μM in Assay Buffer (NEP: 50 mM HEPES, pH 7.5, 100 mM NaCl, 0.01% polyethylene glycol sorbitan monolaurate (Tween-20), 10 μM ZnSO4; ACE: 50 mM HEPES, pH 7.5, 100 mM NaCl, 0.01% Tween-20, 1 μM ZnSO4).
Test compounds were assayed over the range of concentrations from 10 μM to 20 pM. Test compounds were added to the enzymes and incubated for 30 minute at 37° C. prior to initiating the reaction by the addition of substrate. Reactions were terminated after 20 minutes of incubation at 37° C. by the addition of glacial acetic acid to a final concentration of 3.6% (v/v).
Plates were read on a fluorometer with excitation and emission wavelengths set to 320 nm and 405 nm, respectively. Inhibition constants were obtained by nonlinear regression of the data using the equation (GraphPad Software, Inc., San Diego, Calif.): v=v0/[1+(I/K′)] where v is the reaction rate, v0 is the uninhibited reaction rate, I is the inhibitor concentration and K′ is the apparent inhibition constant.
Compounds of the invention were tested in this assay and found to have pKi values at human NEP as follows.

Series [1] is described as follows: Rat PO cassette assay (oral bioavailability). Conditions: plasma, male Sprague-Dawley rats, single oral gavage vs intravenous dose, 0.5 mg/kg, read-out: % F (oral bioavailability). Format: in vivo. An excerpt:
Oral bioavailability, or % F, is a measure of the percentage of a drug in an oral dose that actually reaches the systemic circulation. Compound losses can occur due to incomplete formulation dissolution, incomplete absorption due to compound insolubility or instability along the GI, or metabolism in the gut or across the gut wall. The fraction of the dose which reaches the hepatic portal vein must also then pass through the liver before reaching the systemic circulation. Compound metabolism, or “first-pass extraction,” can occur during this initial passage through the liver, and this is an additional potential source of compound loss. Oral bioavailability is calculated as the dose-normalized ratio of drug exposure after an oral dose to that after an intravenous dose, wherein the entire dose is delivered directly to the systemic circulation.
Each cassette study begins with 10 mM DMSO stock solutions of up to 5 different compounds. Typically, compounds are selected such no two compounds dosed in the same cassette have a molecular weight within 5 Da of each other. This simplifies subsequent bioanalysis. Appropriate volumes of each DMSO stock are added into a volume of vehicle (5% sodium bicarbonate, 5% dextrose in H2O) such that the final concentration of each compound is 0.25 mg/mL. Intravenous dosing solutions are sterile-filtered (0.2 μm) prior to dosing.
Pre-cannulated male Sprague-Dawley rats (3 per cassette per route) between 8 and 10 weeks of age were obtained from Harlan Laboratories (Indianapolis, Ind.). Rats received either a single oral gavage or a single intravenous (via lateral tail vein) dose (2 mL/kg) of the dosing solution. The final dose was 0.5 mg/kg. Serial blood samples were harvested via jugular vein cannula at 3 minutes, 15 minutes, 30 minutes, 1 hours, 2 hours, 4 hours, 6 hours, and 24 hours post-dose. Sampling was performed either manually or using automated blood samplers. Samples were collected into microtainer tubes containing EDTA as the anticoagulant and are processed to plasma by refrigerated centrifugation.
Plasma samples were extracted with 3 volumes of MeCN containing a suitable internal standard. Extracts were reconstituted into 3 volumes of water containing 1% formic acid, and analyzed via HPLC-coupled MS/MS. Plasma concentration-time data were analyzed using the Phoenix software (Pharsight Corp., St. Louis, Mo.) to calculate pharmacokinetic parameters.
Compounds of the invention of particular interest were those having a % F>10%, when tested in this assay.

T1 sequence (P08473 52-750 limits assumed): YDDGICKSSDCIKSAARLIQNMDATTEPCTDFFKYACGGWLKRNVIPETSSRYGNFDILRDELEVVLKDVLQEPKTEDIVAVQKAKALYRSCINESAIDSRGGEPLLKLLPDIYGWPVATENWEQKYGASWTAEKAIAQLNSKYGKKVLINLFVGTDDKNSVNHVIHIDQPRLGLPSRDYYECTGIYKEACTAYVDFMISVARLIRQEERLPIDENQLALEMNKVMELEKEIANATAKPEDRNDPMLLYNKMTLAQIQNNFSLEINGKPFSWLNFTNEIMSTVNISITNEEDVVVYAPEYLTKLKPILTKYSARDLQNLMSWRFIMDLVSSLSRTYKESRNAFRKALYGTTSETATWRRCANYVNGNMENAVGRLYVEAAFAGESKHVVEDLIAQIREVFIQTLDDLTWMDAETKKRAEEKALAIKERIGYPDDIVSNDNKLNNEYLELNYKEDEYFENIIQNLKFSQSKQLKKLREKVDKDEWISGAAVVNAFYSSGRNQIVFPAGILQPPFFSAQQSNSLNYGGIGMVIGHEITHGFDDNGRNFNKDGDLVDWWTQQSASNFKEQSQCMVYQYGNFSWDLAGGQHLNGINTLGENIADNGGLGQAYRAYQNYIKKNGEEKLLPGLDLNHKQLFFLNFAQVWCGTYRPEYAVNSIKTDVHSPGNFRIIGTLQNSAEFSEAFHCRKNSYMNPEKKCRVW

Broadly, the Ki is the equilibrium dissociation constant of an inhibitor or competing ligand from its target. In general, bioavailability refers to dose-corrected exposure relative to a reference, in per cent. With `CCC(CO)(C[C@@H](Cc1ccc(-c2cc(Cl)ccc2F)cc1)NC(=O)c1cnn[nH]1)C(=O)O` (single isomer, unassigned) [Example 14a], the inhibition constant Ki at human NEP was not above 1 nM. In series [1], the bioavailability was more than 10%.
In the case of `CCCC(CO)(C[C@@H](Cc1ccc(-c2cc(Cl)ccc2F)cc1)NC(=O)c1cnn[nH]1)C(=O)O` (single isomer, unassigned) [Example 15a], the Ki at human NEP is not above 1 nM. Besides, the bioavailability in series [1] was more than 10%.
As to `O=C(N[C@H](Cc1ccc(-c2cc(Cl)ccc2F)cc1)CC1(C(=O)O)CCOC1)c1cnn[nH]1` (single isomer, unassigned) [Example 20a], the Ki at human NEP is not above 1 nM. Moreover, the bioavailability in series [1] is more than 10%.
The corresponding values for `CCOC[C@](C)(C[C@@H](Cc1ccc(-c2cccc(Cl)c2)cc1)NC(=O)c1noc(=O)[nH]1)C(=O)O` [Example 9, (2S,4R)-5-(3′-Chlorobiphenyl-4-yl)-2-ethoxymethyl-2-methyl-4-[(5-oxo-4,5-dihydro-[1,2,4]oxadiazole-3-carbonyl)amino]pentanoic Acid] are not above 1 nM and more than 10%.
Consider `CCOC[C@](C)(C[C@@H](Cc1ccc(-c2cc(Cl)ccc2F)cc1)NC(=O)c1coc(C2CC2)n1)C(=O)O` [Example 10, (2S,4R)-5-(5′-Chloro-2′-fluorobiphenyl-4-yl)-4-[(2-cyclopropyoxazole-4-carbonyl)amino]-2-ethoxymethyl-2-methylpentanoic Acid], for which the Ki on human NEP is 1.26 to 3.16 nM.
On to `CCOC[C@](C)(C[C@@H](Cc1ccc(-c2cc(Cl)ccc2F)cc1)NC(=O)c1ncco1)C(=O)O` [Example 11-1, (2S,4R)-5-(5′-Chloro-2′-fluorobiphenyl-4-yl)-2-ethoxymethyl-2-methyl-4-[(oxazole-2-carbonyl)amino]pentanoic acid], for which the Ki at human NEP was 1.26 to 3.16 nM.
On to `CCOC[C@](C)(C[C@@H](Cc1ccc(-c2cc(Cl)ccc2F)cc1)NC(=O)c1ccc(Cl)cn1)C(=O)O` [Example 11-2, (2S,4R)-5-(5′-Chloro-2′-fluorobiphenyl-4-yl)-4-[(5-chloropyridine-2-carbonyl)amino]-2-ethoxymethyl-2-methylpentanoic acid], for which, on human NEP, the inhibitory constant (Ki) is not above 1 nM.
On to `CCOC[C@](C)(C[C@@H](Cc1ccc(-c2cc(Cl)ccc2F)cc1)NC(=O)c1ncccn1)C(=O)O` [Example 11-3, (2S,4R)-5-(5′-Chloro-2′-fluorobiphenyl-4-yl)-2-ethoxymethyl-2-methyl-4-[(pyrimidine-2-carbonyl)amino]pentanoic acid], for which the Ki on human NEP was 1.26 to 3.16 nM.
On to `CCOC[C@](C)(C[C@@H](Cc1ccc(-c2cc(Cl)ccc2F)cc1)NC(=O)c1n[nH]nc1C)C(=O)O` [Example 11-4, (2S,4R)-5-(5′-Chloro-2′-fluorobiphenyl-4-yl)-2-ethoxymethyl-2-methyl-4-[(5-methyl-2H-[1,2,3]triazole-4-carbonyl)amino]pentanoic acid], for which the Ki at human NEP was 1.26 to 3.16 nM. Besides, in series [1], the bioavailability is more than 10%.
Take `NCCC(CO)(C[C@@H](Cc1ccc(-c2cc(Cl)ccc2F)cc1)NC(=O)c1cnn[nH]1)C(=O)O` (stereo partly drawn) [Example 17, (R)-2-(2-Amino-ethyl)-5-(5′-chloro-2′-fluorobiphenyl-4-yl)-2-hydroxymethyl-4-[(3H-[1,2,3]triazole-4-carbonyl)amino]pentanoic Acid]: on human NEP, the Ki is 1.26 to 3.16 nM.
For the compound `CC(=O)NCCC(CO)(C[C@@H](Cc1ccc(-c2cc(Cl)ccc2F)cc1)NC(=O)c1cnn[nH]1)C(=O)O` (stereo partly drawn) [Example 18, (R)-2-(2-Acetylaminoethyl)-5-(5′-chloro-2′-fluorobiphenyl-4-yl)-2-hydroxymethyl-4-[(3H-[1,2,3]triazole-4-carbonyl)amino]pentanoic Acid], the Ki at human NEP was not above 1 nM.
